Measured values published in patent publication US20250195517A1, “TREATMENT OF INTRACRANIAL HEMORRHAGE” (ImmunoChem Therapeutics, LLC, priority 2022, published 2025).

Test system: animal models of acute brain injuries such as intracranial hemorrhage
Assay: animal models of acute brain injuries such as intracranial hemorrhage
Format: in vivo
Source text: MW189 is a novel small molecule drug candidate developed as a selective suppressor of disease- and injury-induced proinflammatory cytokine overproduction associated with destructive neuroinflammation/synaptic dysfunction cycles. […] The investigators seek to establish if these targets are modified in humans with intracranial hemorrhage.

## c1ccc(-c2cc(-c3ccncc3)c(N3CCN(c4ncccn4)CC3)nn2)cc1 [MW189]
  cerebral edema: reduces cerebral edema
  functional and cognitive performance: improves functional and cognitive performance
  neuroinflammation: attenuates neuroinflammation
